Assay results taken from patent US7897162B2, “Arthropod repellent pharmacophore models, compounds identified as fitting the pharmacophore models, and methods of making and using thereof” (The United States of America as represented by the …, priority 2003, dated 2011).

Key:
arthropod = details: Table 1, training set of 11 repellents; protection (repelling) time; cited from earlier work
arthropods [1] = assay: Arthropod repellent test of short-listed compounds found by pharmacophore database search; format: in vivo; details: for Experimental PT: Table 3, compounds identified by database search; for repellent activity against arthropods (in words): short list of 138 compounds from in-house CIS screened
Source text: As provided in Example 4, the pharmacophore model of the present invention was used to search three-dimensional multiconformer databases, including an in-house Chemical Information System (Chemical Information System, Division of Experimental Therapeutics, Walter Reed Army Institute of Research, Silver Spring, Md.), National Cancer Institute, IBS and Maybridge databases, to screen for potential new repellent agents. The Chemical Information System database has over 240,000 compounds and was transformed into a multiconformer database in CATALYST® using the catDB® utility program as implemented in the software. The catDB® format allows a molecule to be represented by a limited set of conformations thereby permitting conformational flexibility to be included during the search of the database.
Specifically, the three-dimensional pharmacophore of the present invention was used as a template for search various three-dimensional multi-conformer databases. Three-dimensional multi-conformer databases of molecules comprise all possible conformations of the three-dimensional structure of each molecule in the database within an energy range of 0 to 25 kcal/mol. The three-dimensional structures in the databases were mapped to or compared with the three-dimensional pharmacophore of the present invention to identify compounds having the same or similar three-dimensional conformations.
The compounds were short listed on the basis of their ADME (Absorption, Distribution, Metabolism, and Excretion) properties and were evaluated by rapid in silico screening using Cerus^2ADME methodology. See Cerius^2ADME. Accelrys Inc. (2003) San Diego, Calif. The short listed compounds were then tested for arthropod repellent property using methods known in the art. See e.g. Debboun, et al. (1999) J. Am. Mosq. Cont. Assoc. 15(3):342-347; and Gupta, R K and Rutledge, L C (1991) J. Am. Mosq. Cont. Assoc. 7:490-493, which are herein incorporated by reference.
Three-dimensional multiconformer databases, including an in-house Chemical Information System (Chemical Information System, Division of Experimental Therapeutics, Walter Reed Army Institute of Research, Silver Spring, Md.), National Cancer Institute, IBS and Maybridge databases, were screened for potential new repellent agents using the pharmacophore model of the present invention. The Chemical Information System database of the Division of Experimental Therapeutics, WRAIR is a database of more than 245,000 proprietary compounds. By using the catDB utility program of the CATALYST®, the database was transformed into a multi-conformer based 3D database. The database searching protocol in the CATALYST® involves a rapid 3D screening process followed by a rigorous atom-by-atom mapping in which a fairly comprehensive set of features including the chemical features of the pharmacophore are considered. In addition to the traditional pharmacophore based searching, 3D shape similarity and partial match searching may also be performed. See Kurogi, Y and Gunner, O F (2001) Current Medicinal Chemistry 8:1035-1055, which is herein incorporated by reference.

mosquitoes = details: cited from earlier work
white rats = details: cited from earlier work
arthropods [2] = details: under warm, humid conditions; cited from earlier work

SMILES | Experimental PT (arthropod) [h] | Experimental PT (arthropods [1]) [h] | further results
CCOc1ccccc1C(=O)N(CC)CC | 0.5 | – | –
CCCN(CCC)C(=O)COCc1ccccc1 | 0.5 | – | –
CCCCN1C(O)=CC(C)c2ccccc21 (centres unmarked) | 2.0 | – | –
CCCN(CCC)C(=O)c1ccccc1OCC | 0.3 | – | –
CCCCC(CC)(CO)CO | 1.7 | – | –
CCCCON1CN(C)N(OCCCC)C1=O | 0.6 | – | –
CCN(CC)C(=O)c1ccccc1Cl | 1.2 | – | –
ClOc1c(Cl)c(Cl)c(Cl)c(Cl)c1Cl | 0.2 | – | –
O=C(OCCCO)c1ccccc1 | 7.5 | – | –
CC(C)COC(=O)CC(O)C(=O)OCC(C)C (centres unmarked) | 2.5 | – | –
CC(C)(Oc1ccccc1Cl)C(N)=O [2-(2-chloro-phenoxy)-2-methyl-propionamide] | – | 2.6 | repellent activity against arthropods (in words) (arthropods [1]): found to exhibit repellent activity against arthropods
C=CCSc1nccnc1C [2-allylsulfanyl-3-methyl-pyrazine] | – | 1.6 | repellent activity against arthropods (in words) (arthropods [1]): found to exhibit repellent activity against arthropods
COc1ccc(OC)c(C(=O)CBr)c1 [2-bromo-1-(2,5-dimethoxy-phenyl)-ethanone] | – | 2.6 | repellent activity against arthropods (in words) (arthropods [1]): found to exhibit repellent activity against arthropods
CCN(CC)C(=O)CC1CCCCC1 [2-cyclohexyl-N,N-diethylacetamide] | – | 0.24 | –
Cc1cc(C)c(C)c(C(=O)C(C)C)c1C [2-methyl-1-(2,3,5,6-tetramethyl-phenyl)-propan-1-one] | – | 9.3 | repellent activity against arthropods (in words) (arthropods [1]): found to exhibit repellent activity against arthropods
CCCCCCCCC(O)C1CCC(CCCCC(=O)O)O1 (centres unmarked) [5-[5-(1-hydroxy-nonyl)-tetrahydro-furan-2-yl]-pentanoic acid] | – | – | landing and feeding deterrence (mosquitoes): acts as a landing and feeding deterrent for mosquitoes
CCN(CC)C(=O)c1cccc(C)c1 [DEET, N,N-diethyl-m-toluamide] | 1.0 | – | toxicity on regular skin application (white rats): gonadotoxic and embryotoxic; duration of application (arthropods [2]): 1 to 2 h
CCN(CC)C(=O)Cc1cccc(Br)c1 [N,N-diethyl-2-(3-bromo-phenyl)-acetamide] | – | 0.63 | –
CCN(CC)C(=O)Cc1cccc(C(F)(F)F)c1 [N,N-diethyl-2-(3-trifluoromethyl-phenyl)-acetamide] | – | 0.14 | –
CCN(CC)C(=O)c1cccc(C(F)(F)F)c1 [N,N-diethyl-3-trifluoromethyl-benzamide] | – | 0.5 | –
